Measurements taken from patent US8686147B2, “Compound with serotoninergic activity, process for preparing it and pharmaceutical composition comprising it” (Aziende Chimiche Riunite Angelini Francesco A.C.R.A.F. …, priority 2009, dated 2014).

Experiments:
5-HT4 serotonin receptor = target: T1, 5-HT4 serotonin receptor (Cavia porcellus, UniProt O70528); assay: Binding to the 5-HT4 serotonin receptor (radioligand binding, homogenate of guinea pig striatum); conditions: six concentrations, read-out: 5-HT4 (pKi) (converted)
T1 construct: The starting materials used were an homogenate of guinea pig striatum; from tissue; host or cells: guinea pig striatum homogenate
Experimental: (§1) Confirmation of the binding to the serotoninergic receptors was performed by means of a biochemical test on purified membranes from recombinant human cells that stably express the specific receptors or from selected animal tissues as described in particular in Grossman C.
(§2) Confirmation of the binding to the serotoninergic receptors was made using purified membranes from selected animal tissues or from recombinant human cells that stably express the specific receptors.
Binding to the 5-HT4 serotonin receptor was performed using standard methods described in: Grossman C. […] The test compounds were tested at six concentrations to obtain the pKi values of the individual compounds.

[1] = target: T2, human 5-HT2A serotonin receptor (Homo sapiens, UniProt P28223); assay: Binding to the human 5-HT2A serotonin receptor; conditions: human 5-HT2A receptor, six concentrations; for Ki: read-out: 5-HT2 (pKi) (converted)
T2 construct: expressed in transfected cells
Experimental: as §1, with “C. J. et al. (1993), Br. J. Pharmacol. 109: 618-624, Bonhaus D. W. et al. (1995), Br. J. Pharmacol. 115(4): 622-628; and Saucier C. et al. (1997), J. Neurochem. 68(5): 1998-2011.” for “C.”
as §2
Binding to the human 5-HT2A serotonin receptor was performed via the standard method described in Bonhaus, D. W., Bach C., De Souza A., Salazar F. H., Matsuoka B. D., Zuppan P., Chan H. W., Eglen R. M. (1995): “The pharmacology and distribution of human 5-hydroxytryptamine 2B (5-HT2B) receptor gene products: comparison with 5-HT2A and 5-HT2C receptors.” Br. J. Pharmacol. 115(4): 622-628; and Saucier C., Albert P. R. (1997): “Identification of an endogenous 5-hydroxytryptamine 2A receptor in NIH-3T3 cells: agonist-induced down-regulation involves decreases in receptor RNA and number.” J. Neurochem. 68(5): 1998-2011. The test compounds were tested at six concentrations to obtain the pKi values of the individual compounds.
The values of affinity for the 5-HT4 and 5-HT2A receptor of a number of compounds of formula (I) according to the present invention are given, respectively, in Tables 2 and 3, and expressed as pKi, the value of which is proportionately greater the greater the affinity of the compound for the receptor.

T1 sequence (O70528 whole entry): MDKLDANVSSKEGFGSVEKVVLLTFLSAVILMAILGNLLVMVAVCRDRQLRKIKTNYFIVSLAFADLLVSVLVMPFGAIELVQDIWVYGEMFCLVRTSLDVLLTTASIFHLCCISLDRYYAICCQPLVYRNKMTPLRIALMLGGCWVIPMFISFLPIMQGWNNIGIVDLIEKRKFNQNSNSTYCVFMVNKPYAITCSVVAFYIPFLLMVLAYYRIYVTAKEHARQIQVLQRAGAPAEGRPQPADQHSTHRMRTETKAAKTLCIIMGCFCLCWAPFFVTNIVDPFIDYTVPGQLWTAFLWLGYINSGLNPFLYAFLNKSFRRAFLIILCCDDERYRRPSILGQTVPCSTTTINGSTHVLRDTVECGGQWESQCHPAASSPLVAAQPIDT
T2 sequence (P28223 whole entry): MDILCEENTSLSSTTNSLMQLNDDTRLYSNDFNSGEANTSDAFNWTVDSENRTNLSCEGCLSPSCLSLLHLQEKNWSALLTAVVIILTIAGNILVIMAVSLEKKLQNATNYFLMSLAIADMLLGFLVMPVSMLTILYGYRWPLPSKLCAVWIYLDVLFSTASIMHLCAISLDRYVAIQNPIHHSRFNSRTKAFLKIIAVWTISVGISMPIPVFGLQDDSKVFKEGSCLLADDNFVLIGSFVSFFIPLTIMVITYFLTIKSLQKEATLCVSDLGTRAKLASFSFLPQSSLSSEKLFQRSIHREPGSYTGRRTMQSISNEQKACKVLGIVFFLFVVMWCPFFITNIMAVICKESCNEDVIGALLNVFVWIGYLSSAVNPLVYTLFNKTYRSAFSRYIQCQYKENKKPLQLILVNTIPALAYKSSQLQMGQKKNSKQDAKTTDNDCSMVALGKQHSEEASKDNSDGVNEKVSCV

Row | melting point [°C] | Ki (5-HT4 serotonin receptor) [nM] | Ki [1] [nM] | SMILES | 5-HT2 (pKi) [1]
1 | 190 to 192 | 2.29 | > 10000 | Cl.Cn1cc2c(OCC3CCN(CCN4CCOCC4)CC3)nc3ccccc3c2c1 [Compound 9a, 4-{[1-(2-(4-Morpholinyl)ethyl)piperid-4-yl]methyloxy}-2-methyl-2H-pyrrolo[3,4-c]quinoline hydrochloride] | –
2 | – | 2.24 | > 10000 | Cn1cc2c(OCC3CCN(CCc4ccc(C(=O)O)cc4)CC3)nc3ccccc3c2c1 [Compound 12a] | –

More lines, now with the values behind:

Row | SMILES | melting point [°C] | Ki (5-HT4 serotonin receptor) [nM] | Ki [1] [nM] | 5-HT2 (pKi) [1]
3 | Cl.Cn1cc2c(OCC3CCN(CC(=O)Nc4ccccc4)CC3)nc3ccccc3c2c1 | 163 to 165 | – | – | –
4 | CCCCN1CCC(COc2nc3ccccc3c3cn(C)cc23)CC1 [Compound 3, 4-[(1-Butylpiperid-4-yl)methyloxy]-2-methyl-2H-pyrrolo[3,4-c]quinoline] | – | 14.8 | > 1000 | –
5 | Cn1cc2c(OCC3CCN(CCc4ccccc4)CC3)nc3ccccc3c2c1 [Compound 4, 4-{[1-(2-Phenyl)ethylpiperidine-4-yl]methoxy}-2-methyl-2H-pyrrolo[3,4-c]quinoline] | – | 1.86 | – | –
6 | CC(C)n1cc2c(OCC3CCN(CCc4ccccc4)CC3)nc3ccccc3c2c1 [Compound 5, 4-{[1-(2-Phenyl)ethylpiperid-4-yl]methoxy}-2-isopropyl-2H-pyrrolo[3,4-c]quinoline] | – | 138 | – | –
7 | Cn1cc2c(OCC3CCN(CC(=O)Nc4ccccc4)CC3)nc3ccccc3c2c1 [Compound 6, N-Phenyl-2-{4-[2-methyl-2H-pyrrolo[3,4-c]quinolin-4-yloxy-methyl]piperid-1-yl}acetamide] | – | 132 | – | –
8 | Cl.Cn1cc2c(OCC3CCN(CCc4ccc(N)cc4)CC3)nc3ccccc3c2c1 [Compound 11a, 4-[(1-(4-Aminophenylethyl)piperid-4-yl)methyloxy]-2-methyl-2H-pyrrolo[3,4-c]quinoline hydrochloride] | 165 to 167 | 4.57 | – | 6.6
9 | CC(=O)Nc1ccc(CCN2CCC(COc3nc4ccccc4c4cn(C)cc34)CC2)cc1 [Compound 13, 4-[(1-(4-Acetamidophenylethyl)piperid-4-yl)methyloxy]-2-methyl-2H-pyrrolo[3,4-c]quinoline] | – | 1.86 | > 1000 | –
10 | COCc1ccc(CCN2CCC(COc3nc4ccccc4c4cn(C)cc34)CC2)cc1 [Compound 16, 4-[(1-(4-Methoxymethylphenylethyl)piperid-4-yl)methyloxy]-2-methyl-2H-pyrrolo[3,4-c]quinoline] | – | 19.1 | – | –
